Experimental data reported in patent US10954269B2, “Anti-inflammatory tripeptides” (Dr. August Wolff Gmbh & Co. KG Arzneimittel, priority 2013, dated 2021).

Assays:
[1] = system: primary murine T-cells; test: Cytokine secretion on protein level in activated primary murine T-cells (13-plex FACS / Luminex, supernatant); assay type: cell-based, C57BL/6 mice; details: substance 10^−9M
Protocol: (§1) Primary T-cells were isolated from peripheral blood from healthy volunteers and from secondary lymphatic organs from naïve C57BL/6 mice, respectively. The cells were stimulated with phorbol-12-myristate-13-acetate (PMA)/Ionomycin and interferon-gamma (IFN-γ), respectively, for 48 h to activate the cells. The activated cells release pro-inflammatory cytokines. In parallel a human (HaCaT) keratinocyte cell line was activated with PMA/Ionomycin and IFN-γ, respectively, too. […] At the same time release of anti-inflammatory IL-10 was inhibited. Two days after addition of PMA/Ionomycin and IFN-γ, respectively, the induction of IL-1 secretion was determined in the supernatant for proving that the cells are activated. […] The anti-inflammatory properties of the tripeptides were determined 48 h and 72 h following stimulation. A 13-plex-system based FACS analysis was used for showing the reduced secretion of pro-inflammatory cytokines in the supernatant. Data for IL-1, IL-2, IL-6, IL-12p70 IL-17, IFN-γ and TNF-α are considered to be most relevant. Thus, analysis of the anti-inflammatory properties of the tripeptides is preferably based on the results obtained for these analytes. […] Using this method the gene expression of pro-inflammatory markers like IL-6, IL-17, IFN-γ and TNF-α was determined.
In a third experiment murine and human T cells and HaCaT cells were stimulated with PMA/Ionomycin and treated with Examples 14, 15, 16 and 17 at 10^−7 M, 10^−9 M and 10^−11 M. Cytokine concentrations (IFN-γ, IL-17 and IL-10 for T cells and IFN-γ for HaCat) were assessed in the supernatants using the Luminex technology. Expression of genes coding for Il-1β, IL-6 and TNF-α was determined. […] Moreover, concentrations of pro-inflammatory cytokines IFN-γ and IL-17 was reduced in the supernatants whereas the concentration of anti-inflammatory cytokine IL-10 was increased.
The anti-inflammatory and immunomodulatory effects of selected examples of the present invention were compared with common immunosuppressants. Thus, cells activated with PMA/Ionomycin and IFN-γ, respectively, were stimulated with MMF or dexamethasone. Following stimulation the secretion of pro-inflammatory cytokines was analyzed on protein and gene level (Table 9 and FIGS. 4-6).

[2] = system: primary human T-cells; test: Cytokine secretion on protein level in activated primary human T-cells (13-plex FACS / Luminex, supernatant); assay type: cell-based; details: for IL-1 cytokine concentration / IL-2 cytokine concentration / IL-4 cytokine concentration / IL-5 cytokine concentration / IL-6 cytokine concentration / IL-9 cytokine concentration / IL-10 cytokine concentration / IL-12p70 cytokine concentration / IL-13 cytokine concentration / IL-17 cytokine concentration / IL-22 cytokine concentration / TNF-α cytokine concentration / INF-α cytokine concentration: substance 10^−9M
Protocol: as §1
(§2) In a third experiment murine and human T cells and HaCaT cells were stimulated with PMA/Ionomycin and treated with Examples 14, 15, 16 and 17 at 10^−7 M, 10^−9 M and 10^−11 M. Cytokine concentrations (IFN-γ, IL-17 and IL-10 for T cells and IFN-γ for HaCat) were assessed in the supernatants using the Luminex technology. Expression of genes coding for Il-1β, IL-6 and TNF-α was determined. […] Moreover, concentrations of pro-inflammatory cytokines IFN-γ and IL-17 was reduced in the supernatants whereas the concentration of anti-inflammatory cytokine IL-10 was increased. […]
(§3) For the biological assay two human cell lines of different origin were chosen to allow for translation of the results obtained. A HaCaT cell is a cell type belonging to an immortal human keratinocyte line used in scientific research. Its use in research allows for the characterization of human keratinocyte using a model that is reproducible and representing a human epithelial cell line. In contrast human T-lymphocytes (T-cells) are a type of lymphocyte (itself a type of white blood cell) that play a central role in cell-mediated inflammation/immunity.

[3] = system: human keratinocyte cell line (HaCaT); test: Cytokine secretion on protein level in activated human keratinocyte cell line HaCaT (13-plex FACS / Luminex, supernatant); assay type: cell-based; details: for IL-1 cytokine concentration / IL-2 cytokine concentration / IL-4 cytokine concentration / IL-5 cytokine concentration / IL-6 cytokine concentration / IL-9 cytokine concentration / IL-10 cytokine concentration / IL-12p70 cytokine concentration / IL-13 cytokine concentration / IL-17 cytokine concentration / IL-22 cytokine concentration / TNF-α cytokine concentration / IFN-γ cytokine concentration: substance 10^−9M
Protocol: as §1, §2, §3

[4] = primary murine T-cells stimulated with IFN-γ
[5] = primary murine T-cells stimulated with PBS
[6] = primary murine T-cells stimulated with PMA/Ionomycin
[7] = primary human T-cells stimulated with IFN-γ
[8] = primary human T-cells stimulated with PBS
[9] = primary human T-cells stimulated with PMA/Ionomycin
[10] = HaCaT stimulated with PMA/Ionomycin

Substance: N^α,N^α-dimethyl-(L)-Nle-(D)-Pro-N^α-methyl-(L)-Thr-OH [Example 6]
- IL-1 cytokine concentration [1, 4]: 95.15 pg/mL
- IL-2 cytokine concentration [1, 4]: 181.25 pg/mL
- IL-4 cytokine concentration [1, 4]: 156.84 pg/mL
- IL-5 cytokine concentration [1, 4]: 517.47 pg/mL
- IL-6 cytokine concentration [1, 4]: 223.98 pg/mL
- IL-10 cytokine concentration [1, 4]: 1782.7 pg/mL
- IL-13 cytokine concentration [1, 4]: 0 pg/mL
- IL-17 cytokine concentration [1, 4]: 189.88 pg/mL
- IL-21 cytokine concentration [1, 4]: 251.06 pg/mL
- IL-22 cytokine concentration [1, 4]: 73.27 pg/mL
- IL-27 cytokine concentration [1, 4]: 0 pg/mL
- TNF-α cytokine concentration [1, 4]: 40.87 pg/mL
- IFN-γ cytokine concentration [1, 5]: 546.71 pg/mL
- IL-1 cytokine concentration [1, 5]: 106.27 pg/mL
- IL-2 cytokine concentration [1, 5]: 204.71 pg/mL
- IL-4 cytokine concentration [1, 5]: 39.23 pg/mL
- IL-5 cytokine concentration [1, 5]: 407.29 pg/mL
- IL-6 cytokine concentration [1, 5]: 170.46 pg/mL
- IL-10 cytokine concentration [1, 5]: 1391.3 pg/mL
- IL-13 cytokine concentration [1, 5]: 0 pg/mL
- IL-17 cytokine concentration [1, 5]: 0 pg/mL
- IL-21 cytokine concentration [1, 5]: 0 pg/mL
- IL-22 cytokine concentration [1, 5]: 16.55 pg/mL
- IL-27 cytokine concentration [1, 5]: 108.06 pg/mL
- TNF-α cytokine concentration [1, 5]: 0 pg/mL
- IFN-γ cytokine concentration [1, 6]: 8164.35 pg/mL
- IL-1 cytokine concentration [1, 6]: 486.85 pg/mL
- IL-2 cytokine concentration [1, 6]: 218.69 pg/mL
- IL-4 cytokine concentration [1, 6]: 164.69 pg/mL
- IL-5 cytokine concentration [1, 6]: 380.37 pg/mL
- IL-6 cytokine concentration [1, 6]: 237.95 pg/mL
- IL-10 cytokine concentration [1, 6]: 988.64 pg/mL
- IL-13 cytokine concentration [1, 6]: 0 pg/mL
- IL-17 cytokine concentration [1, 6]: 200.32 pg/mL
- IL-21 cytokine concentration [1, 6]: 470.65 pg/mL
- IL-22 cytokine concentration [1, 6]: 85.67 pg/mL
- IL-27 cytokine concentration [1, 6]: 95.51 pg/mL
- TNF-α cytokine concentration [1, 6]: 72.81 pg/mL
- secretion / expression of pro-inflammatory cytokines (supernatant) ([2]; activated primary human T-cells): decreased expression
- IL-1 cytokine concentration [2, 7]: 0 pg/mL
- IL-2 cytokine concentration [2, 7]: 0 pg/mL
- IL-4 cytokine concentration [2, 7]: 76.04 pg/mL
- IL-5 cytokine concentration [2, 7]: 0 pg/mL
- IL-6 cytokine concentration [2, 7]: 45.83 pg/mL
- IL-9 cytokine concentration [2, 7]: 0 pg/mL
- IL-10 cytokine concentration [2, 7]: 51.86 pg/mL
- IL-12p70 cytokine concentration [2, 7]: 0 pg/mL
- IL-13 cytokine concentration [2, 7]: 46.95 pg/mL
- IL-17 cytokine concentration [2, 7]: 36.76 pg/mL
- IL-22 cytokine concentration [2, 7]: 0 pg/mL
- TNF-α cytokine concentration [2, 7]: 17.44 pg/mL
- IL-1 cytokine concentration [2, 8]: 107.12 pg/mL
- IL-2 cytokine concentration [2, 8]: 114.93 pg/mL
- IL-5 cytokine concentration [2, 8]: 12.74 pg/mL
- IL-6 cytokine concentration [2, 8]: 105.53 pg/mL
- IL-9 cytokine concentration [2, 8]: 8.15 pg/mL
- IL-10 cytokine concentration [2, 8]: 92.62 pg/mL
- IL-12p70 cytokine concentration [2, 8]: 0 pg/mL
- IL-13 cytokine concentration [2, 8]: 0 pg/mL
- IL-17 cytokine concentration [2, 8]: 113.52 pg/mL
- IL-22 cytokine concentration [2, 8]: 0 pg/mL
- INF-α cytokine concentration [2, 8]: 0 pg/mL
- TNF-α cytokine concentration [2, 8]: 28.11 pg/mL
- IL-1 cytokine concentration [2, 9]: 533.57 pg/mL
- IL-2 cytokine concentration [2, 9]: 2005.81 pg/mL
- IL-4 cytokine concentration [2, 9]: 87.24 pg/mL
- IL-5 cytokine concentration [2, 9]: 312.5 pg/mL
- IL-6 cytokine concentration [2, 9]: 1194.58 pg/mL
- IL-9 cytokine concentration [2, 9]: 238.28 pg/mL
- IL-10 cytokine concentration [2, 9]: 999.32 pg/mL
- IL-12p70 cytokine concentration [2, 9]: 0 pg/mL
- IL-13 cytokine concentration [2, 9]: 1050.19 pg/mL
- IL-17 cytokine concentration [2, 9]: 1388.88 pg/mL
- IL-22 cytokine concentration [2, 9]: 0 pg/mL
- INF-α cytokine concentration [2, 9]: 7597.87 pg/mL
- TNF-α cytokine concentration [2, 9]: 2638.52 pg/mL
- IL-1 cytokine concentration ([3]; HaCaT stimulated with IFN-γ): 0 pg/mL
- IL-2 cytokine concentration ([3]; HaCaT stimulated with IFN-γ): 17.47 pg/mL
- IL-4 cytokine concentration ([3]; HaCaT stimulated with IFN-γ): 0 pg/mL
- IL-5 cytokine concentration ([3]; HaCaT stimulated with IFN-γ): 0 pg/mL
- IL-6 cytokine concentration ([3]; HaCaT stimulated with IFN-γ): 202.37 pg/mL
- IL-9 cytokine concentration ([3]; HaCaT stimulated with IFN-γ): 0 pg/mL
- IL-10 cytokine concentration ([3]; HaCaT stimulated with IFN-γ): 0 pg/mL
- IL-12p70 cytokine concentration ([3]; HaCaT stimulated with IFN-γ): 0 pg/mL
- IL-13 cytokine concentration ([3]; HaCaT stimulated with IFN-γ): 1872.11 pg/mL
- IL-17 cytokine concentration ([3]; HaCaT stimulated with IFN-γ): 0 pg/mL
- IL-22 cytokine concentration ([3]; HaCaT stimulated with IFN-γ): 0 pg/mL
- TNF-α cytokine concentration ([3]; HaCaT stimulated with IFN-γ): 0 pg/mL
- IFN-γ cytokine concentration ([3]; HaCaT stimulated with PBS): 0 pg/mL
- IL-1 cytokine concentration ([3]; HaCaT stimulated with PBS): 25.45 pg/mL
- IL-2 cytokine concentration ([3]; HaCaT stimulated with PBS): 0 pg/mL
- IL-4 cytokine concentration ([3]; HaCaT stimulated with PBS): 91.99 pg/mL
- IL-5 cytokine concentration ([3]; HaCaT stimulated with PBS): 0 pg/mL
- IL-6 cytokine concentration ([3]; HaCaT stimulated with PBS): 52.48 pg/mL
- IL-9 cytokine concentration ([3]; HaCaT stimulated with PBS): 0 pg/mL
- IL-10 cytokine concentration ([3]; HaCaT stimulated with PBS): 57.95 pg/mL
- IL-12p70 cytokine concentration ([3]; HaCaT stimulated with PBS): 0 pg/mL
- IL-13 cytokine concentration ([3]; HaCaT stimulated with PBS): 0 pg/mL
- IL-17 cytokine concentration ([3]; HaCaT stimulated with PBS): 26.72 pg/mL
- IL-22 cytokine concentration ([3]; HaCaT stimulated with PBS): 0 pg/mL
- TNF-α cytokine concentration ([3]; HaCaT stimulated with PBS): 8.21 pg/mL
- IFN-γ cytokine concentration [3, 10]: 0 pg/mL
- IL-1 cytokine concentration [3, 10]: 62.07 pg/mL
- IL-2 cytokine concentration [3, 10]: 16.53 pg/mL
- IL-4 cytokine concentration [3, 10]: 0 pg/mL
- IL-5 cytokine concentration [3, 10]: 0 pg/mL
- IL-6 cytokine concentration [3, 10]: 248.33 pg/mL
- IL-9 cytokine concentration [3, 10]: 3.71 pg/mL
- IL-10 cytokine concentration [3, 10]: 64.03 pg/mL
- IL-12p70 cytokine concentration [3, 10]: 0 pg/mL
- IL-13 cytokine concentration [3, 10]: 0 pg/mL
- IL-17 cytokine concentration [3, 10]: 21.52 pg/mL
- IL-22 cytokine concentration [3, 10]: 0 pg/mL
- TNF-α cytokine concentration [3, 10]: 5.37 pg/mL
- secretion / expression of pro-inflammatory cytokines (supernatant) ([3]; activated human keratinocytes): decreased expression
